The results in this text go back to patent US20110212053A1, “PHOSPHATIDYLINOSITOL 3 KINASE INHIBITORS” (priority 2008, published 2011).

For one test, the target named is TRKC (Homo sapiens, UniProt Q16288). Briefly: Radiometric HotSpot kinase assay, TRKC. The conditions noted are these: 1 μM compound, 10 μM ATP. Format: biochemical. As for the experimental part: (§1) Kinase Profiling: The inhibitory activity of the PI3K inhibitor compounds of the invention against 250 protein kinases was determined via the radiometric HotSpot Kinase Profiling (Reaction Biology Corporation, Malvern, Pa.). Compounds were profiled at a final concentration of 1 μM compound against recombinant protein kinases in the presence of 10 μM ATP and data were expressed as percent inhibition. IC50 and/or percent inhibition at 1 μM compound values were determined for select compounds against a subset of kinases (MELK, MNK1, MNK2, mTOR, PIM-1. TRKC, and PDGFRα(D842V)).
Chain of TRKC (Q16288 32-839): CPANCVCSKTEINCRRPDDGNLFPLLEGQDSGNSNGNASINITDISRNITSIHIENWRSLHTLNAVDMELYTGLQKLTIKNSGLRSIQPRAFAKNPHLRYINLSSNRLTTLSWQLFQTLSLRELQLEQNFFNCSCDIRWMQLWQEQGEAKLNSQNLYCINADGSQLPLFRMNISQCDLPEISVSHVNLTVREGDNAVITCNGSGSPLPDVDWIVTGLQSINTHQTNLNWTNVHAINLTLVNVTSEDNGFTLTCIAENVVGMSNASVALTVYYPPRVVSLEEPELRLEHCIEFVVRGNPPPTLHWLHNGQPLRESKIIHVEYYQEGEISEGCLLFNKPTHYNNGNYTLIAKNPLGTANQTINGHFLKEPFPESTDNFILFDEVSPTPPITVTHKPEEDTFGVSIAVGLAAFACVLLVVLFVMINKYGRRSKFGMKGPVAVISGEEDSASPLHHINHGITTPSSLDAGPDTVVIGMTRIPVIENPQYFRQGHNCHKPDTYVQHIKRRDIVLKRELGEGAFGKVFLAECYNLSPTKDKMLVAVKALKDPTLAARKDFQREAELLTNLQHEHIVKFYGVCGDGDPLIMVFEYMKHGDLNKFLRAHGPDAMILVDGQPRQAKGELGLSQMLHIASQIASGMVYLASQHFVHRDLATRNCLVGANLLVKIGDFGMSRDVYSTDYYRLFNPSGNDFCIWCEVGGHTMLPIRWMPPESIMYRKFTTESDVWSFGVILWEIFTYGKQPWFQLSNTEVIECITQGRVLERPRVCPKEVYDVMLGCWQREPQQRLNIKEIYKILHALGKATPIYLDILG
(§2) Compounds of the invention were assayed against the select kinases using the KinaseGLO assay (MELK) or the radiometric assay (PIM, TRKC, PDGFRα(D842V), MNK1 and mTOR). IC50 values were determined using 8-10 point half-log dose dilutions and calculated via nonlinear regression analysis using Graphpad Prism data analysis software.

For the next test, the system named is U-87 MG cells. Briefly: CellTiter-GLO cell proliferation assay, U-87 MG. Format: cell-based. Conditions: Homo sapiens, preliminary experiments, no unit printed with the values (paragraph speaks of nM), read-out: mean concentration for 50% inhibition of U-87 MG cell proliferation. As for the experimental part: Compound Preparation: Cell-based assays: 1000× stocks of inhibitors were prepared in DMSO. A 10 mM master stock was prepared and all other stocks were generated by serial dilution of the master stock in DMSO. The final concentration of DMSO in cell-based assays was 0.1% (v/v).
CellTiter-GLO® Cell Proliferation Assay: CellTiter-GLO® (Promega) quantifies cell number as a measure of the ATP in a cell culture. 1,000-10,000 human tumor cells (of multiple histotypes) were plated in 100 μL of growth medium (10% (v/v) FBS in DMEM) in white, collagen coated 96-well plates (Biocoat) and allowed to adhere overnight at 37° C. in a 5% CO2 incubator. All test inhibitors were prepared in DMSO. For EC50 determinations, 1000× inhibitor stocks were prepared from a 10 mM master stock by serial dilution in DMSO and subsequently diluted in fresh growth medium to the desired inhibitor concentration. The growth medium was removed by aspiration and replaced with fresh medium containing inhibitors. […]
After 72 hours, the plates were removed from the incubator and equilibrated to room temperature for 30 minutes. […] Plates were incubated in the dark for 10 minutes at room temperature before reading luminescence on a SpectraMax M5 luminometer. Results are expressed as % inhibition relative to control cells (DMSO only). EC50 values were calculated via non-linear regression using GraphPad Prism data analysis software.

A further test addresses PDGFRα(D842V) (Homo sapiens, UniProt P16234, D842V). Briefly: Radiometric HotSpot kinase assay, PDGFRα(D842V). The class given is biochemical. As for the experimental part: as §1, §2

A value given as a limit tells only on which side of the number the result lay.

Chain of PDGFRα(D842V) (P16234 24-1089 D842V): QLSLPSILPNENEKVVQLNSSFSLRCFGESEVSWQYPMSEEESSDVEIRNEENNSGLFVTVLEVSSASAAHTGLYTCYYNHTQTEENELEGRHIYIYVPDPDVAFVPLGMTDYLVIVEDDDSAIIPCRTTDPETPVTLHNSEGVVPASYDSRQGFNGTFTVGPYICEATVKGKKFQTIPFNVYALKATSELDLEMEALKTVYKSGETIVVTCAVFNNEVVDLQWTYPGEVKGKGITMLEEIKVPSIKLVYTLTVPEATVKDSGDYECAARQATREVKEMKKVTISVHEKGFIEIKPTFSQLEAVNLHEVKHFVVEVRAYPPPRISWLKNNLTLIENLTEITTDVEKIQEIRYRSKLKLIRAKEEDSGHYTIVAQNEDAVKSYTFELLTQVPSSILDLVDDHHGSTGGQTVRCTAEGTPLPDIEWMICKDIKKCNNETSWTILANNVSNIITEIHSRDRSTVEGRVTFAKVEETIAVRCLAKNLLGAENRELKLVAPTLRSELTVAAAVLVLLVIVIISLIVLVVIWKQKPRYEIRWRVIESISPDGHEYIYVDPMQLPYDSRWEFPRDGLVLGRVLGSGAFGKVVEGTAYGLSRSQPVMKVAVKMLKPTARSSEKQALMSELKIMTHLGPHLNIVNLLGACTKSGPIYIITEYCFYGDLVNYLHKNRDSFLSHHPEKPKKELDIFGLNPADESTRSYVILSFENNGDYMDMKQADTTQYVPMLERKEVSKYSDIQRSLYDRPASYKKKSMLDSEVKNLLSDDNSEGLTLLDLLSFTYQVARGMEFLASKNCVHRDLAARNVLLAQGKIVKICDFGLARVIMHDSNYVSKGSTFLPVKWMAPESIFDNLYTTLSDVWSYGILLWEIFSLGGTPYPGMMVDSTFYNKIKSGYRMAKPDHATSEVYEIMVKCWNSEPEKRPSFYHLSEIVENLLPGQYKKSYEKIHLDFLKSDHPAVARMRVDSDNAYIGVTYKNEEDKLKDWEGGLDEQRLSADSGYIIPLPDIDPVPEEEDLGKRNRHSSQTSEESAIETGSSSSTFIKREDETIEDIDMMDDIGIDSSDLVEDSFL

Molecule `CC(C)(C#N)c1ccc(-c2n[nH]c3cnc4ccc(-c5cccnc5)cc4c23)cc1` [Compound 1107, 2-methyl-2-(4-(8-(pyridin-3-yl)-3H-pyrazolo[3,4-c]quinolin-1-yl)phenyl)propanenitrile] displayed an inhibition at 1 µM against TRKC of more than 97%. The IC50 in the test on U-87 MG cells is 470 nM.
For `CC(C)(C#N)c1ccc(-c2n[nH]c3cnc4ccc(-c5cnc6ccccc6c5)cc4c23)cc1` [Compound 1078, 2-methyl-2-(4-(8-(quinolin-3-yl)-3H-pyrazolo[3,4-c]quinolin-1-yl)phenyl)propanenitrile], the IC50 with U-87 MG cells amounted to 295 nM.
At TRKC, `CC(C)(C#N)c1ccc(-c2n[nH]c3cnc4ccc(-c5ccc6ncccc6c5)cc4c23)cc1` [Compound 1110, 2-methyl-2-(4-(8-(quinolin-6-yl)-3H-pyrazolo[3,4-c]quinolin-1-yl)phenyl)propanenitrile] displayed an inhibition at 1 µM of more than 80%. On PDGFRα(D842V), this molecule displayed an IC50 of more than 100 nM.
